Residues, ends and D or L forms follow the SMILES beside them. *: point of attachment. Cbz = O=C(OCc1ccccc1)*; tBu = CC(C)(C)*

The text below walks through data of a melting point compilation (Tetko et al.; mined from patent text by program, amines drawn as free bases though some values may be those of a salt).

By melting point is commonly meant the temperature, or range, at which the solid turns liquid. In turn, `COc1cccc2c1CN(c1c(F)c(F)c3c(=O)c(C(=O)O)cn(C4CC4)c3c1F)C2` gave a melting point of over 280 °C. In the case of `COc1ccc(C2CN(C(C)=O)C(=O)O2)cc1OC` (stereo unspecified), the melting point is 175 to 182 °C. The compound `CC(C)Sc1sc(C(=O)N2CCCC2)c2c1-c1oncc1C(C)(C)C2` gave a melting point of 88 to 91 °C. Next, `COc1cc(-c2ccccc2C(F)(F)F)c(Cl)cc1C(=O)N1Cc2cccn2Cc2ccccc21`: 208 to 210 °C; `CCc1ccc2[nH]c(C(=O)O)cc2c1`: 173 °C; `Cc1ccc(S(=O)(=O)Nc2cccc3cc(C(=O)Nc4ccccc4)[nH]c23)cc1`: 247 to 248 °C. For `COCCO[C@@H]1c2ccc3[nH]c(C)nc3c2O[C@H](c2ccccc2)[C@H]1O`, the melting point is 117 °C. As to `CC(C)(C)OC(=O)NC[C@H]1CC[C@H](CO)CC1`, the melting point was 88 to 89 °C.

Regarding `CCCCCCCN(CCCCCSc1nc(-c2ccc(OC)cc2)c(-c2ccc(OC)cc2)[nH]1)c1nc2ccccc2[nH]1`, the melting point lay within 78 to 80 °C.

For `CC(O)=C(C#N)C(=O)Oc1cccc(Cl)c1Cl`, the melting point lay within 142 to 146 °C. For the compound `O=C(ON1C(=O)CCC1=O)c1ccc(-c2ccc(S(=O)(=O)N3CCCC(CO)C3)cc2)[nH]c1=O` (stereo unspecified), the melting point fell in the range of 201 to 204 °C. Consider `COc1ccc(/C=C/C(=O)Nc2ccccc2C(=O)NCc2cn(CC(=O)Nc3ccccc3)nn2)cc1OC`, for which the melting point lay in the range of 189 to 191 °C. Take `CC(C)(C)OC(=O)N1CCN(c2ccc(S(=O)(=O)c3ccccc3)c([N+](=O)[O-])c2)CC1`: the melting point lay within 190 to 191 °C. For `Cn1c(=O)cnc2cccc(Oc3cc(-c4ccc(C(F)(F)F)cc4)ncn3)c21`, the melting point stood at 158 °C.

The compound `NS(=O)(=O)c1ccc(-c2cccc(-c3nc(-c4ccc(F)c(F)c4)cc(C(F)(F)F)n3)c2)s1` showed a melting point of 238 °C. For `COc1ccc2c(c1)C13CCN(C)C(C2)C1OCOC3` (stereo unspecified), the melting point lay within 134 to 135 °C.

`Cc1ccc2c(c1)C(C(=O)Nc1ccccc1C(C)C)c1ccccc1CO2` (stereo unspecified) came in with a melting point of 180 to 181 °C. For the compound `O=c1oc(OCCCCBr)c(Cl)c2ccccc12`, the melting point is 75 to 77 °C.

Turning to `Cn1cc(C(=O)O)c(=O)c2cc3cc(F)c(N4CCNC(c5ccccc5)C4)c(F)c3nc21` (racemic), the melting point turned out to be 298 °C. `CCc1n[nH]c(CCOc2ccc(S(C)(=O)=O)cc2)c1Oc1cc(C#N)cc(C#N)c1`: the melting point is 88 to 90 °C. `NC(=O)C1(Cl)CC2C3CC4C2C4C31` (stereo unspecified) gave a melting point of 124 to 126 °C. Next, `N#Cc1cc([N+](=O)[O-])cc(C#N)c1N`: 160 to 163 °C; `CCOC(=O)Cc1sc(S)nc1-c1ccc(Cl)cc1`: 176 to 178 °C.

Regarding `COc1ccc([C@]2(C)CNC(=O)O2)cc1O`, the melting point is 142 °C. On to `O=Cc1cc(Br)cnc1Cl`, for which the melting point is 88 to 89 °C.

For `CC1CCc2nc(=O)c(C(N)=O)cn21` (stereo unspecified), the melting point came to 223 °C. In turn, `COc1ccc(CCNC(=O)C(=O)NCc2ccccn2)cc1OC1CCCC1` came in with a melting point of 141 to 143 °C.

With `O=C1c2ccccc2C(=O)N1OCC1OC(n2ccc(=O)[nH]c2=O)CC1O` (stereo unspecified), the melting point is 241 to 242 °C.

`O=C(Nc1ccccn1)Nc1nc(-c2ccccc2)cs1` displayed a melting point of 247 to 249 °C.

`Clc1ccc2nc(Cl)c(-c3ccccc3)cc2c1` registered a melting point of 147 to 149 °C. Consider `Nc1ncc(Cc2ccc3c(c2)OCO3)c(N)n1`, for which the melting point was 248 to 255 °C. The compound `O=C(C=C1OC(=O)c2cccc(Cl)c21)c1ccccc1` gave a melting point of 148 °C. In turn, `N#Cc1ccc(-c2ccc(OC(F)(F)F)c(CNC3CCN(C(=O)CO)CC3c3ccccc3)c2)c(F)c1` (stereo unspecified) registered a melting point of 132 to 134 °C. Compound `COc1ccc(-c2c[nH]c3c(OC)ccc(OC)c3c2=O)cc1` returned a melting point of 124 to 125 °C. As for `CC(C)(O)C(C)(O)Cc1ccccc1` (stereo unspecified), the melting point fell in the range of 72 to 74 °C. As to `Cc1ncccc1CN(CCn1cc(C)c2occc2c1=O)Cc1ccc2c(c1)NC(=O)C(C)(C)C(=O)N2C1CC1`, the melting point fell in the range of 191 to 193 °C. Compound `CS(=O)(=O)c1ccc(-c2cnn(CC(F)(F)F)c(=O)c2OC2CCCC2)cc1` yielded a melting point of 148 to 150 °C.

On to `OCc1ccc(-c2ccc3nnn(Cc4ccc5ncccc5c4)c3n2)cc1`, for which the melting point was in the range of 187 to 189 °C. Next, `CC(C)(C)OC(=O)C=Cc1ccc(NC(=O)C=C2CC(C(=O)O)Nc3ccccc32)cc1` (racemic): 140 °C; `O=C(O)c1ccc(C2=NCCO2)cc1`: over 300 °C; `CCOC(=O)/C=C/c1cn(-c2ccccc2)nc1OCc1ccccc1`: 105 to 106 °C.

In turn, `N#Cc1c(N)c2ccccc2[nH]c1=O` gave a melting point of over 250 °C. Compound `C=Cc1cc(OS(=O)(=O)c2ccc(C)cc2)c(OC)cc1C#N` yielded a melting point of 149 to 150 °C. The compound `COC(=O)c1ccc(C#CC(O)c2ccc3c(c2)C(C)(C)CCC3(C)C)cc1O` (stereo unspecified) yielded a melting point of 92 to 93 °C. For the compound `O=c1[nH]c(-c2ccccn2)nc(C(F)(F)F)c1I`, the melting point fell in the range of 186 to 187 °C. In turn, `Cc1ccc(C(=O)NCCC(=O)OCc2ccccc2)c(NC(=O)CCCCNC(=O)OC(C)(C)C)c1` registered a melting point of 112 to 113 °C.

In the case of `COc1cc(CN2CCN(C(=O)c3ccc4c(c3)C(=O)c3ccccc3C4=O)CC2)cc(OC)c1OC`, the melting point lay in the range of 158 to 160 °C. `O=C(O)CCC(=O)NC1CCCCC1` displayed a melting point of 168 to 170 °C.

The compound `CC(=NNCCCC(C)C)C(=O)O` returned a melting point of 118 to 125 °C. In turn, `O=S1(=O)NC(C2CCCCC2)Nc2c(Br)cc(Br)cc21` (stereo unspecified) registered a melting point of 166 to 167 °C. Regarding `CCOC(=O)Cc1sc(Sc2cccc(C(F)(F)F)n2)nc1C`, the melting point fell in the range of 56 to 57 °C. `CS(=O)c1c(C#N)nn(-c2c(Cl)cc(C(F)(F)F)cc2Cl)c1NCC(N)=O` (stereo unspecified) returned a melting point of 155 to 157 °C. `COc1ccccc1C(=O)c1cc2ccccc2[nH]1` had a melting point of 129 to 130 °C. For the compound `CC(C)(C)C(=O)Oc1ccc(-c2nnn(CCCCC(=O)O)n2)cc1`, the melting point lay in the range of 129 to 131 °C.

In turn, `COc1cc(NS(=O)(=O)c2ccc3c(ccn3C)c2)cc(OC)c1OC` returned a melting point of 188 to 189 °C. Compound `Cc1c(-c2ccccc2F)[nH]c(N)c1C#N` returned a melting point of 117 to 118 °C.

`CN(C)C(=O)c1ccc(NC(=O)C(C)(C)C)cc1C(F)(F)F` registered a melting point of 199 to 200 °C. Compound `Cc1c(CCC2CC(O)CC(=O)O2)c2c(c(C)c1OC(=O)c1ccccc1)CC(C)(C)O2` (stereo unspecified) yielded a melting point of 188 to 190 °C. Next, `CNC(=S)N1CCSC1c1ccccc1OCCN1CCC(c2ccccc2)CC1` (stereo unspecified): 141 to 142 °C.

Consider `COC(=O)C(Cc1ccccc1)NC(=O)C(Cc1ccc(OC(C)(C)C)cc1)NC(=O)OCc1ccccc1` (stereo unspecified) (Cbz-Tyr(tBu)-Phe-OMe; configuration not given here), for which the melting point lay within 106 to 107 °C.

Compound `CCc1c(C(=O)c2cc(C)cc(C)c2)n(C/C=C/COC(C)=O)c(=O)[nH]c1=O` registered a melting point of 152 to 153 °C. `N#Cc1ccccc1OC[C@@H](O)CNCCOc1ccc2oc(-c3ccon3)cc2c1` gave a melting point of 94 to 95 °C. In turn, `Cc1cccc2nc(NC(=O)c3ccc(C(C)(C)C)cc3)cn12` came in with a melting point of 204 to 205 °C.

Consider `CCCCOC(=O)CNC(=O)c1ccc2cc(C(=O)O)[nH]c2c1`, for which the melting point is 267 to 268 °C. In the case of `COc1cc2ncc(C#N)c(Nc3ccc(O)c(Cl)c3)c2cc1OC`, the melting point lay in the range of 230 to 232 °C. In turn, `CCCn1c(=O)c(-c2ccccc2)c2n(c1=O)C=CCS2=O` (stereo unspecified) returned a melting point of 174 to 175 °C. On to `CCCCCCCCN(Cc1ccc(CN(CCCCCCCC)OC(=O)c2ccccc2)cc1)OC(=O)c1ccccc1`, for which the melting point is 80 to 81 °C.

With `O=C(O)CCC(=NOCc1ccc(OCc2cn3c(-c4ccccc4)cccc3n2)cc1)c1ccccc1`, the melting point is 160 to 161 °C. Then `COc1cc2ccc(CO)c(-c3ccnc(Br)c3)c2cc1OC`, with 150 to 153 °C; and `COc1cc(Cl)c([N+](=O)[O-])cc1C(=O)NCCC(=O)O`, with 170 to 172 °C; and `Cc1oc(-c2ccccc2)nc1C(O)COc1ccc(CC2SC(=O)NC2=O)nc1` (stereo unspecified), with 55 to 72 °C. In the case of `CCOC(=O)N1CCC(=C2c3ccc(Cl)cc3CCn3ccnc32)CC1`, the melting point stood at 140 °C. `CC(C)(C)c1cc(CBr)ccc1O[Si](C)(C)C(C)(C)C` returned a melting point of 54 to 55 °C. For `COC(=O)C(C)(C)OCC#Cc1cc(C(F)(F)F)ccc1NS(=O)(=O)c1ccc2c(c1)OCCN2C`, the melting point fell in the range of 98 to 100 °C.

In turn, `Cn1ncc2c1-c1c(S(C)(=O)=O)sc(S(=O)(=O)Cl)c1CC2` came in with a melting point of 81 to 82 °C.

In turn, `O[C@@H]1CN=C(c2ccc(Cl)c(Cl)c2)O[C@H]1c1ccccc1` (racemic) displayed a melting point of 158 °C. Next, `CN(C)C1CCN(S(=O)(=O)c2ccc(Nc3ccnc4cc(Cl)ccc34)cc2)CC1`: 230 to 231 °C; `Cn1c(=O)c(-c2ccc(Cl)cc2Cl)cc2c3cc(-c4c[nH]nn4)ccc3n(C)c21`: 274 to 275 °C; `COC(=O)CNC(=O)c1cc2c(C(=O)CN(Cc3ccccc3)C(C)(C)C)ccc(OCc3ccccc3)c2[nH]1`: 152 °C. Consider `CCOC(=O)c1cc(=O)c2c(OCC(C)(O)Oc3ccc(Br)cc3)cccc2o1` (stereo unspecified), for which the melting point is 79 to 80 °C.

Take `COc1c(C)cnc(CS(=O)c2nc3c(C)c(OC)c(C)cc3[nH]2)c1C` (stereo unspecified): the melting point was determined as 137 °C. `Cc1ccc([N+](=O)[O-])c2c1CCC(C)O2` (stereo unspecified) had a melting point of 83 to 85 °C.

As to `O=C1NC(=S)SC1Cc1cccc2c1CCC(=O)N2Cc1ccc(Br)cc1` (stereo unspecified), the melting point was in the range of 191 to 192 °C. Next, `COc1ccc(Cn2c3ccccc3c3c(N)c(C(=O)O)c(C)nc32)cc1`: 206 to 208 °C. The compound `O=C(NCCCn1ncnn1)c1ccccc1NS(=O)(=O)c1cccc(C(F)(F)F)c1` gave a melting point of 67 to 69 °C. Next, `O=C(/C=C/C=C/c1ccccc1[N+](=O)[O-])NCCCCCC(=O)NO`: 131 to 133 °C.
